Test results: the supplement of paper PMC10307832

Columns and labels:
Experiment in all cases: relative viability (nuclei count vs DMSO), 5 days (fraction); higher = more cells survive
[1] = compound: CC(C)N(CCCNC(=O)Nc1ccc(C(C)(C)C)cc1)C[C@H]1O[C@@H](n2ccc3c(N)ncnc32)[C@H](O)[C@@H]1O + C[C@]1(O)C[C@@H](c2nc(-c3ccc4ccc(-c5ccccc5)nc4c3)c3c(N)nccn32)C1 [Linsitinib] (partner 1 µM)
In short: (§1)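 Lung cancer cell lines in 1536-well plates got either a single drug or a fixed anchor-drug dose together with five library-drug doses (not always all listed) in √10 steps, by pin tool, on the day after seeding. Nuclei were counted after 5 days, and relative viability is the treated-to-vehicle ratio of nuclei counts. Values are medians of duplicate plates.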

[2] = compound: CC(C)N(CCCNC(=O)Nc1ccc(C(C)(C)C)cc1)C[C@H]1O[C@@H](n2ccc3c(N)ncnc32)[C@H](O)[C@@H]1O + CC(C)C[C@H](NC(=O)[C@H](Cc1ccccc1)NC(=O)c1cnccn1)B(O)O [Bortezomib] (partner 0.002 µM)
In short: as §1

Shikonin + Alpelisib = compound: CC(C)=CC[C@@H](O)C1=CC(=O)c2c(O)ccc(O)c2C1=O [Shikonin] + Cc1nc(NC(=O)N2CCC[C@H]2C(N)=O)sc1-c1ccnc(C(C)(C)C(F)(F)F)c1 [Alpelisib] (partner 2 µM)
In short: as §1

Shikonin + Olaparib = compound: CC(C)=CC[C@@H](O)C1=CC(=O)c2c(O)ccc(O)c2C1=O [Shikonin] + O=C(c1cc(Cc2n[nH]c(=O)c3ccccc23)ccc1F)N1CCN(C(=O)C2CC2)CC1 [Olaparib] (partner 8 µM)
In short: as §1

With NCI-H2023 the relative viability ([1]; first compound 0.08 µM) was 0.661, the relative viability ([1]; first compound 0.253 µM) was 0.734 and the relative viability ([1]; first compound 0.8 µM) was 0.72. It also gave a relative viability ([1]; first compound 2.53 µM) of 0.709, a relative viability ([1]; first compound 8 µM) of 0.652 and a relative viability ([2]; first compound 0.08 µM) of 0.89. It also gave a relative viability ([2]; first compound 0.253 µM) of 0.451, a relative viability ([2]; first compound 0.8 µM) of 0.872 and a relative viability ([2]; first compound 2.53 µM) of 1.09. The relative viability ([2]; first compound 8 µM) was 0.821, the relative viability (Shikonin + Alpelisib; first compound 0.01 µM) was 0.579 and the relative viability (Shikonin + Alpelisib; first compound 0.1 µM) was 0.709. For the same cell line, the relative viability (Shikonin + Alpelisib; first compound 0.3162 µM) was 0.589, the relative viability (Shikonin + Alpelisib; first compound 1 µM) was 0.598 and the relative viability (Shikonin + Olaparib; first compound 0.01 µM) was 0.478. It also gave a relative viability (Shikonin + Olaparib; first compound 0.1 µM) of 0.559, a relative viability (Shikonin + Olaparib; first compound 0.3162 µM) of 0.622 and a relative viability (Shikonin + Olaparib; first compound 1 µM) of 0.437.
